{"source": "patent US7060501B2", "about": "(priority 2002, dated 2006)", "key": {"[1]": {"tested_on": "organophosphate hydrolase", "format": "biochemical", "settings": "0.5 mM amiprophos-methyl, 2 μg organophosphate hydrolase, scans every 30 seconds"}, "maize callus": {"tested_on": "maize callus", "format": "cell-based"}, "[2]": {"target": "organophosphate hydrolase (Brevundimonas diminuta, UniProt P0A434)", "settings": "cited from earlier work"}, "[3]": {"tested_on": "transgenic OPH and control callus cells", "experiment": "Growth of callus cultures on haloxon plates (prospective Example 9, FIG. 6)", "format": "cell-based", "settings": "haloxon 1, 5, 10, 50, 100 and 500 μM, six weeks, percentage growth compared to control"}, "[4]": {"tested_on": "organophosphate hydrolase in maize callus", "experiment": "Coumaphos plate screen: fluorescence of maize callus under ultraviolet light", "format": "cell-based", "settings": "3 ml of 1 mg/ml coumaphos per plate, two days post-transfer"}}, "data": [{"compound": "COP(=S)(NC(C)C)Oc1ccc(C)cc1[N+](=O)[O-]", "note": "(stereo not drawn) [amiprophos-methyl]", "values": [{"measurement": "cleavage by organophosphate hydrolase, detected by absorbance", "setting": "[1]", "result": "results in the absorbance of light"}, {"measurement": "effect on new growth from maize callus", "setting": "maize callus", "result": "inhibitory effect"}]}, {"compound": "CCOP(=S)(OCC)SCn1c(=O)oc2cc(Cl)ccc21", "note": "[phosalone]", "values": [{"measurement": "rate of hydrolysis by organophosphate hydrolase compared with strong alkaline / non-enzymatic hydrolysis", "setting": "[2]", "result": "thousands of times greater"}]}, {"compound": "CCCOP(=S)(OCCC)SCC(=O)N1CCCCC1C", "note": "(stereo not drawn) [piperophos]", "values": [{"measurement": "effect on new growth from maize callus", "setting": "maize callus", "result": "inhibitory effect"}]}, {"compound": "Cc1c(Cl)c(=O)oc2cc(OP(=O)(OCCCl)OCCCl)ccc12", "note": "[haloxon]", "values": [{"measurement": "growth of transgenic OPH cells versus control cultures", "setting": "[3]", "result": "ability of the transgenic OPH cells to grow at concentrations where control cultures would not"}]}, {"compound": "CCOP(=S)(OCC)Oc1ccc2c(C)c(Cl)c(=O)oc2c1", "note": "[coumaphos]", "values": [{"measurement": "fluorescence of non-transformed callus under ultraviolet light", "setting": "[4]; non-transformed callus", "result": "did not"}, {"measurement": "fluorescence of transformed callus under ultraviolet light", "setting": "[4]; transformed callus", "result": "fluoresced"}, {"measurement": "effect on new growth from maize callus", "setting": "maize callus", "result": "inhibitory effect"}]}, {"compound": "demeton-S-methyl", "values": [{"measurement": "rate of hydrolysis by organophosphate hydrolase compared with strong alkaline / non-enzymatic hydrolysis", "setting": "[2]", "result": "thousands of times greater"}]}, {"compound": "COP(=O)(NC(C)=O)SC", "note": "(stereo not drawn) [acephate]", "values": [{"measurement": "rate of hydrolysis by organophosphate hydrolase compared with strong alkaline / non-enzymatic hydrolysis", "setting": "[2]", "result": "thousands of times greater"}]}, {"compound": "CCOC(=O)CC(SP(=S)(OC)OC)C(=O)OCC", "note": "(stereo not drawn) [malathion]", "values": [{"measurement": "capability of the enzyme for hydrolysis", "setting": "[2]", "result": "poor capability"}, {"measurement": "rate of hydrolysis by organophosphate hydrolase compared with strong alkaline / non-enzymatic hydrolysis", "setting": "[2]", "result": "significantly better"}]}]}
